Molecular target: T1, Putative nitroreductase (Staphylococcus saprophyticus subsp. saprophyticus (strain ATCC 15305 / DSM20229 / NCIMB 8711 / NCTC 7292 / S-41)) (UniProt Q4A0P1)
T1 sequence (whole entry): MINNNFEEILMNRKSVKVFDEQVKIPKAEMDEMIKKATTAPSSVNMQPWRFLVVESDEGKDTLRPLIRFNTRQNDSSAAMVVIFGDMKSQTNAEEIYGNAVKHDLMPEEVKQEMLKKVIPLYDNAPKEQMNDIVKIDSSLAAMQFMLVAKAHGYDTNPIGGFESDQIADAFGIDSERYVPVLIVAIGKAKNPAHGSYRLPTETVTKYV
Experiment: Substrate activity at Staphylococcus saprophyticus nitroreductase assessed as ratio of Kcat/Km up to 80 mM using NADH as cofactor relative to CB1954/NfsB

Structure (SMILES)	fold change (FC)
CCN(C(C)=O)c1cc([N+](=O)[O-])cc([N+](=O)[O-])c1	20.9
NC(=O)c1cc(N2CC2)c([N+](=O)[O-])cc1[N+](=O)[O-]	0.38
NC(=O)c1cc(N(CCCl)CCCl)c([N+](=O)[O-])cc1[N+](=O)[O-]	1.67
CC(=O)Nc1cc([N+](=O)[O-])cc([N+](=O)[O-])c1	17.6

Reference: ChEMBL document CHEMBL4393661, “PRODRUGS FOR NITROREDUCTASE BASED CANCER THERAPY- 2: Novel amide/Ntr combinations targeting PC3 cancer cells” (Eur J Med Chem, 2019)
